# Measured values: BindingDB's records for doi:10.1021/jm00008a002 (Warner-Lambert, 1995)
# Target: Endothelin-1 receptor (Oryctolagus cuniculus)
# Test: Tested for antagonistic activity against Endothelin A receptor in the rabbit renal artery vascular smooth muscle cells.
row,IC50 [nM],SMILES
1,310,"COc1ccc(CC2=C(c3ccc(Cl)c(Cl)c3)C(=O)OC2(O)c2ccc(OC)cc2)cc1 (configuration not stated) [3-(3,4-Dichloro-phenyl)-5-hydroxy-4-(4-methoxy-benzyl)-5-(4-methoxy-phenyl)-5H-furan-2-one]"
2,6,"COc1ccc(C2(O)OC(=O)C(c3ccc4c(c3)OCO4)=C2Cc2ccc(OC)c(C)c2)cc1 (configuration not stated) [3-Benzo[1,3]dioxol-5-yl-5-hydroxy-4-(4-methoxy-3-methyl-benzyl)-5-(4-methoxy-phenyl)-5H-furan-2-one]"
